Results on 15 molecules are retold here after US7608717B2, “Sulfonyldihydroimidazopyridinone compounds as 5-hydroxytryptamine-6 ligands” (Wyeth, priority 2003, dated 2009).

The assay addresses T1, human cloned 5-HT6 receptors (Homo sapiens, UniProt P50406).
T1 construct: expressed in transfected cells; host or cells: HeLa cells
Briefly: 5-HT6 binding affinity ([3H]-LSD displacement, membranes of Hela cells expressing human cloned 5-HT6 receptors). Conditions: [3H]-LSD 3.0 nM, Hela cell membranes, 120 min at room temperature. Here is the method:
The affinity of test compounds for the serotonin 5-HT6 receptor is evaluated in the following manner. Cultured Hela cells expressing human cloned 5-HT6 receptors are harvested and centrifuged at low speed (1,000×g) for 10.0 min to remove the culture media. The harvested cells are suspended in half volume of fresh physiological phosphate buffered saline solution and recentrifuged at the same speed. This operation is repeated. The collected cells are then homogenized in ten volumes of 50 mM Tris.HCl (pH 7.4) and 0.5 mM EDTA. The homogenate is centrifuged at 40,000×g for 30.0 min and the precipitate is collected. The obtained pellet is resuspended in 10 volumes of Tris.HCl buffer and recentrifuged at the same speed. The final pellet is suspended in a small volume of Tris.HCl buffer and the tissue protein content is determined in aliquots of 10-25 μl volumes. Bovine Serum Albumin is used as the standard in the protein determination according to the method described in Lowry et al., J. Biol. Chem., 193:265 (1951). The volume of the suspended cell membranes is adjusted to give a tissue protein concentration of 1.0 mg/ml of suspension. The prepared membrane suspension (10 times concentrated) is aliquoted in 1.0 ml volumes and stored at −70° C. until used in subsequent binding experiments.
Binding experiments are performed in a 96 well microtiter plate format, in a total volume of 200 μl. […] The test compounds are added in 20.0 μl volume.
The reaction is allowed to proceed in the dark for 120 min at room temperature, at which time, the bound ligand-receptor complex is filtered off on a 96 well unifilter with a Packard Filtermate® 196 Harvester. The bound complex caught on the filter disk is allowed to air dry and the radioactivity is measured in a Packard TopCount® equipped with six photomultiplier detectors, after the addition of 40.0 μl Microscint®-20 scintillant to each shallow well. The unifilter plate is heat-sealed and counted in a PackardTopCount® with a tritium efficiency of 31.0%.
Binding in the presence of varying concentrations of test compound is expressed as a percentage of specific binding in the absence of test compound. The results are plotted as log % bound versus log concentration of test compound. […] A linear regression line of data points is plotted, from which the IC50 value is determined and the Ki value is determined based upon the following equation: Ki=IC50/(1+L/KD) where L is the concentration of the radioactive ligand used and KD is the dissociation constant of the ligand for the receptor, both expressed in nM.

T1 sequence (P50406 whole entry): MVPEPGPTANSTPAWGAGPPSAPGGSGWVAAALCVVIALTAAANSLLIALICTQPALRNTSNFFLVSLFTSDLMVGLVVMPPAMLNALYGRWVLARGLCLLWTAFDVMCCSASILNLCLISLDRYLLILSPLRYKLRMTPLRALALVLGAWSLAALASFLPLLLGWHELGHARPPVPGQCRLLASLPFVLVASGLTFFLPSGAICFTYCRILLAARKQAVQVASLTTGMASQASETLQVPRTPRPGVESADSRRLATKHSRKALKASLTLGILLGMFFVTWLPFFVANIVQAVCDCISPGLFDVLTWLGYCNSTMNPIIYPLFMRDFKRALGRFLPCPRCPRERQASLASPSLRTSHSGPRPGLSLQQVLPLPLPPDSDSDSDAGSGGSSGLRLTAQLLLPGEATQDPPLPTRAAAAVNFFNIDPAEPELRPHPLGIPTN

What is called Ki is the equilibrium dissociation constant of an inhibitor or competing ligand from its target. A low value points to higher affinity. On to `NCCn1c(=O)n(S(=O)(=O)c2cccc(Cl)c2Cl)c2cccnc21` [Example 24, 3-(2-aminoethyl)-1-[(2,3-dichlorophenyl)sulfonyl]-1,3-dihydro-2H-imidazo[4,5-b]pyridin-2-one], for which the affinity corresponds to a Ki of 9 nM.

As to `NCCn1c(=O)n(S(=O)(=O)c2ccccc2)c2cccnc21` [Example 15, 3-(2-aminoethyl)-1-(phenylsulfonyl)-1,3-dihydro-2H-imidazo[4,5-b]pyridin-2-one], the affinity, expressed as Ki, was 44 nM.

In turn, `NCCn1c(=O)n(S(=O)(=O)c2ccc3ccccc3c2)c2cccnc21` [Example 18, 3-(2-aminoethyl)-1-(2-naphthylsulfonyl)-1,3-dihydro-2H-imidazo[4,5-b]pyridin-2-one] showed a Ki of 5 nM.

`NCCn1c(=O)n(S(=O)(=O)c2c(Cl)nc3sccn23)c2cccnc21` [Example 17, 3-(2-aminoethyl)-1-[(6-chloroimidazo[2,1-b][1,3]thiazol-5-yl)sulfonyl]-1,3-dihydro-2H-imidazo[4,5-b]pyridin-2-one] registered a Ki of 4 nM.

In the case of `COc1cccc(S(=O)(=O)n2c(=O)n(CCN)c3ncccc32)c1` [Example 19, 3-(2-aminoethyl)-1-[(3-methoxyphenyl)sulfonyl]-1,3-dihydro-2H-imidazo[4,5-b]pyridin-2-one], the Ki was found to be 14 nM.

As to `NCCn1c(=O)n(S(=O)(=O)c2cccc(Br)c2)c2cccnc21` [Example 25, 3-(2-aminoethyl)-1-[(3-bromophenyl)sulfonyl]-1,3-dihydro-2H-imidazo[4,5-b]pyridin-2-one], the affinity corresponds to a Ki of 12 nM. The Ki values of the last two molecules are within 1.5-fold of each other.

In the case of `CN(C)CCn1c(=O)n(S(=O)(=O)c2cccc(F)c2)c2cccnc21` [Example 4, 3-(2-dimethylaminoethyl)-1-[(3-fluorophenyl)sulfonyl]-1,3-dihydro-2H-imidazo[4,5-b]pyridin-2-one], the affinity corresponds to a Ki of 80 nM. This Ki is about 6.7-fold higher than that of the molecule before.

The molecule `NCCn1c(=O)n(S(=O)(=O)c2cccc(Cl)c2)c2cccnc21` [Example 16, 3-(2-aminoethyl)-1-[(3-chlorophenyl)sulfonyl]-1,3-dihydro-2H-imidazo[4,5-b]pyridin-2-one] showed a Ki of 16 nM. Compared with the last molecule, the Ki is about 5-fold lower.

The molecule `NCCn1c(=O)n(S(=O)(=O)c2ccc(Cl)s2)c2cccnc21` [Example 14, 3-(2-Aminoethyl)-1-[(5-chlorothien-2-yl)sulfonyl]-1,3-dihydro-2H-imidazo[4,5-b]pyridin-2-one] had a Ki of 18 nM.

`NCCn1c(=O)n(S(=O)(=O)c2cc(Cl)sc2Cl)c2cccnc21` [Example 27, 3-(2-aminoethyl)-1-[(2,5-dichlorothien-3-yl)sulfonyl]-1,3-dihydro-2H-imidazo[4,5-b]pyridin-2-one] came in with a Ki of 22 nM. The Ki values of the last two molecules are within 1.5-fold of each other.

For the molecule `NCCn1c(=O)n(S(=O)(=O)c2ccccc2Cl)c2cccnc21` [Example 22, 3-(2-aminoethyl)-1-[(2-chlorophenyl)sulfonyl]-1,3-dihydro-2H-imidazo[4,5-b]pyridin-2-one], the Ki came out at 55 nM. This Ki lies about 2.5-fold higher than the previous one.

With `NCCn1c(=O)n(S(=O)(=O)c2ccc(Br)s2)c2cccnc21` [Example 26, 3-(2-aminoethyl)-1-[(5-bromothien-2-yl)sulfonyl]-1,3-dihydro-2H-imidazo[4,5-b]pyridin-2-one], the affinity, expressed as Ki, was 9 nM.

Turning to `NCCn1c(=O)n(S(=O)(=O)c2ccccc2F)c2cccnc21` [Example 20, 3-(2-aminoethyl)-1-[(2-fluorophenyl)sulfonyl]-1,3-dihydro-2H-imidazo[4,5-b]pyridin-2-one], the Ki was found to be 77 nM.

`NCCn1c(=O)n(S(=O)(=O)c2ccc(Cl)cc2)c2cccnc21` [Example 23, 3-(2-aminoethyl)-1-[(4-chlorophenyl)sulfonyl]-1,3-dihydro-2H-imidazo[4,5-b]pyridin-2-one] registered a Ki of 17 nM.

Consider `CN(C)CCn1c(=O)n(S(=O)(=O)c2cccc(Br)c2)c2cccnc21` [Example 7, 1-[(3-bromophenyl)sulfonyl]-3-[2-(dimethylamino)ethyl]-1,3-dihydro-2H-imidazo[4,5-b]pyridin-2-one], for which the Ki was 23 nM.
